Test results as given in publication PMC2889615 (Biochemistry, 2010).

Key:
[1] = biological target: T1, PODANSg2158 (Podospora anserina, UniProt B2AM55); assay: X-ray crystal structure, […] Å; format: binding; details: wild-type enzyme; FAD in each of four subunits; pH 6 crystals
T1 sequence (B2AM55 1-430): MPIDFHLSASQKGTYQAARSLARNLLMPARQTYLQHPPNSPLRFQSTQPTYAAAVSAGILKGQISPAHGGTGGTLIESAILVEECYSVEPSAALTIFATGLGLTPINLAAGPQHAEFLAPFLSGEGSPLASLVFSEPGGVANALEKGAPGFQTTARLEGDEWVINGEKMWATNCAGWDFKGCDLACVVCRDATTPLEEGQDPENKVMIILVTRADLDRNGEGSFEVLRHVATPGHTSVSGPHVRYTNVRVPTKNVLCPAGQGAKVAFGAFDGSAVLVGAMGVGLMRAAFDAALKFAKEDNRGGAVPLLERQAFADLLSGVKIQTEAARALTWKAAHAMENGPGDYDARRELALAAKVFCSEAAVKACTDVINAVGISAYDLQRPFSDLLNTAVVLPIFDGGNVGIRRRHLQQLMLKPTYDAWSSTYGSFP

[2] = biological target: Asp402 (UniProt position 402, CYPLFDGGNIG); assay: kinetics; details: free enzyme; substrate nitroethane; cited from earlier work

| Molecule | X-ray crystal structure, 2.0 Å [1] | pKa [2] |
| --- | --- | --- |
| Cc1cc2nc3c(=O)[nH]c(=O)nc-3n(C[C@H](O)[C@H](O)[C@H](O)COP(=O)(O)OP(=O)(O)OC[C@H]3O[C@@H](n4cnc5c(N)ncnc54)[C@H](O)[C@@H]3O)c2cc1C [FAD] | FAD could be clearly identified in each of the subunits. | – |
| Nitroalkane oxidase (NAO) (Fusarium oxysporum) | – | 6.9 |
